Species: Rattus norvegicus
Test: DrugMatrix - Regimen: Daily Repeat
Format: toxicity, organism-based, Sprague-Dawley
Design: regimen Daily Repeat, gender Male, age 6-8 weeks
Settings: in vivo, po, route oral GAVAGE, vehicle 100 % WATER; for ABSOLUTE BASOPHIL / ABSOLUTE EOSINOPHIL / ABSOLUTE LYMPHOCYTE / ABSOLUTE MONOCYTE / ABSOLUTE SEGMENTED NEUTROPHIL / BASOPHIL / EOSINOPHIL / ERYTHROCYTE COUNT / HEMATOCRIT / HEMOGLOBIN / LEUKOCYTE COUNT / LYMPHOCYTE / MEAN CORPUSCULAR HEMOGLOBIN / MEAN CORPUSCULAR HEMOGLOBIN CONCENTRATION / MEAN CORPUSCULAR VOLUME / MONOCYTE / NEUTROPHIL / NUCLEATED RED BLOOD CELLS / PLATELET COUNT: tissue Blood; for ALANINE AMINOTRANSFERASE / ALBUMIN / ALKALINE PHOSPHATASE / ASPARTATE AMINOTRANSFERASE / BLOOD UREA NITROGEN / CARBON DIOXIDE / CHLORIDE / CHOLESTEROL / CREATINE PHOSPHOKINASE / CREATININE / GLUCOSE / LACTATE DEHYDROGENASE / LIPASE / PHOSPHORUS / POTASSIUM / SODIUM / TOTAL BILIRUBIN / TOTAL PROTEIN / URIC ACID: tissue Plasma
[1] = 48 mg/kg, 72 h, dose level High, time 3 day
[2] = 48 mg/kg, 120 h, dose level High, time 5 day
[3] = […], 72 h, dose 3.2 mg/Kg, dose level Low, time 3 day
[4] = […], 120 h, dose 3.2 mg/Kg, dose level Low, time 5 day

O=C(c1ccccc1)c1ccc2n1CCC2C(=O)O (configuration not stated) [KETOROLAC]
ABSOLUTE BASOPHIL [1]: 0 CELLS/uL
ABSOLUTE EOSINOPHIL [1]: 209.67 CELLS/uL
ABSOLUTE LYMPHOCYTE [1]: 27063 CELLS/uL
ABSOLUTE MONOCYTE [1]: 1382.33 CELLS/uL
ABSOLUTE SEGMENTED NEUTROPHIL [1]: 3145 CELLS/uL
BASOPHIL [1]: 0%
EOSINOPHIL [1]: 0.67%
ERYTHROCYTE COUNT [1]: 3.97 x10E6/uL
HEMATOCRIT [1]: 23.77%
HEMOGLOBIN [1]: 9.13 G/DL
LEUKOCYTE COUNT [1]: 31.8 x10E3/uL
LYMPHOCYTE [1]: 85%
MEAN CORPUSCULAR HEMOGLOBIN [1]: 23.5 pg
MEAN CORPUSCULAR HEMOGLOBIN CONCENTRATION [1]: 38.6 G/DL
MEAN CORPUSCULAR VOLUME [1]: 60.83 fL
MONOCYTE [1]: 4.33%
NEUTROPHIL [1]: 10%
NUCLEATED RED BLOOD CELLS [1]: 0.33 /100WBC
PLATELET COUNT [1]: 1452.33 x10E3/uL
ALANINE AMINOTRANSFERASE [1]: 19.67 u/L
ALBUMIN [1]: 3.1 G/DL
ALKALINE PHOSPHATASE [1]: 170.33 u/L
ASPARTATE AMINOTRANSFERASE [1]: 55.33 u/L
BLOOD UREA NITROGEN [1]: 14 mg/dL
CARBON DIOXIDE [1]: 24 mmol/L
CHLORIDE [1]: 105.33 MEQ/L
CHOLESTEROL [1]: 64.67 mg/dL
CREATINE PHOSPHOKINASE [1]: 293 u/L
CREATININE [1]: 0.19 mg/dL
GLUCOSE [1]: 170 mg/dL
LACTATE DEHYDROGENASE [1]: 145.33 u/L
LIPASE [1]: 7.67 u/L
PHOSPHORUS [1]: 12.67 mg/dL
POTASSIUM [1]: 7.45 MEQ/L
SODIUM [1]: 144.47 MEQ/L
TOTAL BILIRUBIN [1]: 0.13 mg/dL
TOTAL PROTEIN [1]: 5.17 G/DL
URIC ACID [1]: 3 mg/dL
ABSOLUTE BASOPHIL [2]: 0 CELLS/uL
ABSOLUTE EOSINOPHIL [2]: 0 CELLS/uL
ABSOLUTE LYMPHOCYTE [2]: 14525.25 CELLS/uL
ABSOLUTE MONOCYTE [2]: 548.5 CELLS/uL
ABSOLUTE SEGMENTED NEUTROPHIL [2]: 4876.25 CELLS/uL
BASOPHIL [2]: 0%
EOSINOPHIL [2]: 0%
ERYTHROCYTE COUNT [2]: 4.52 x10E6/uL
HEMATOCRIT [2]: 27.15%
HEMOGLOBIN [2]: 10.4 G/DL
LEUKOCYTE COUNT [2]: 19.95 x10E3/uL
LYMPHOCYTE [2]: 76.25%
MEAN CORPUSCULAR HEMOGLOBIN [2]: 23.03 pg
MEAN CORPUSCULAR HEMOGLOBIN CONCENTRATION [2]: 38.32 G/DL
MEAN CORPUSCULAR VOLUME [2]: 60.12 fL
MONOCYTE [2]: 3.25%
NEUTROPHIL [2]: 20.5%
NUCLEATED RED BLOOD CELLS [2]: 0.5 /100WBC
PLATELET COUNT [2]: 2011.5 x10E3/uL
ALANINE AMINOTRANSFERASE [2]: 73.25 u/L
ALBUMIN [2]: 2.58 G/DL
ALKALINE PHOSPHATASE [2]: 411.75 u/L
ASPARTATE AMINOTRANSFERASE [2]: 294 u/L
BLOOD UREA NITROGEN [2]: 25.5 mg/dL
CARBON DIOXIDE [2]: 25.25 mmol/L
CHLORIDE [2]: 102 MEQ/L
CHOLESTEROL [2]: 70.5 mg/dL
CREATINE PHOSPHOKINASE [2]: 1478 u/L
CREATININE [2]: 0.18 mg/dL
GLUCOSE [2]: 115.25 mg/dL
LACTATE DEHYDROGENASE [2]: 533.75 u/L
LIPASE [2]: 13.5 u/L
PHOSPHORUS [2]: 13.42 mg/dL
POTASSIUM [2]: 7.39 MEQ/L
SODIUM [2]: 142.23 MEQ/L
TOTAL BILIRUBIN [2]: 0.18 mg/dL
TOTAL PROTEIN [2]: 5.4 G/DL
URIC ACID [2]: 2.45 mg/dL
ABSOLUTE BASOPHIL [3]: 0 CELLS/uL
ABSOLUTE EOSINOPHIL [3]: 59.33 CELLS/uL
ABSOLUTE LYMPHOCYTE [3]: 7885.33 CELLS/uL
ABSOLUTE MONOCYTE [3]: 273 CELLS/uL
ABSOLUTE SEGMENTED NEUTROPHIL [3]: 682.33 CELLS/uL
BASOPHIL [3]: 0%
EOSINOPHIL [3]: 0.67%
ERYTHROCYTE COUNT [3]: 5.54 x10E6/uL
HEMATOCRIT [3]: 36.1%
HEMOGLOBIN [3]: 13.73 G/DL
LEUKOCYTE COUNT [3]: 8.9 x10E3/uL
LYMPHOCYTE [3]: 88.67%
MEAN CORPUSCULAR HEMOGLOBIN [3]: 24.83 pg
MEAN CORPUSCULAR HEMOGLOBIN CONCENTRATION [3]: 38.07 G/DL
MEAN CORPUSCULAR VOLUME [3]: 65.27 fL
MONOCYTE [3]: 3%
NEUTROPHIL [3]: 7.67%
NUCLEATED RED BLOOD CELLS [3]: 0 /100WBC
PLATELET COUNT [3]: 1257 x10E3/uL
ALANINE AMINOTRANSFERASE [3]: 47.67 u/L
ALBUMIN [3]: 4.6 G/DL
ALKALINE PHOSPHATASE [3]: 439.67 u/L
ASPARTATE AMINOTRANSFERASE [3]: 96 u/L
BLOOD UREA NITROGEN [3]: 11.33 mg/dL
CARBON DIOXIDE [3]: 32.33 mmol/L
CHLORIDE [3]: 102.5 MEQ/L
CHOLESTEROL [3]: 64.67 mg/dL
CREATINE PHOSPHOKINASE [3]: 218 u/L
CREATININE [3]: 0.17 mg/dL
GLUCOSE [3]: 144.33 mg/dL
LACTATE DEHYDROGENASE [3]: 103.33 u/L
LIPASE [3]: 9.33 u/L
PHOSPHORUS [3]: 11.4 mg/dL
POTASSIUM [3]: 6 MEQ/L
SODIUM [3]: 148.9 MEQ/L
TOTAL BILIRUBIN [3]: 0.0667 mg/dL
TOTAL PROTEIN [3]: 6.63 G/DL
URIC ACID [3]: 0.43 mg/dL
ABSOLUTE BASOPHIL [4]: 0 CELLS/uL
ABSOLUTE EOSINOPHIL [4]: 0 CELLS/uL
ABSOLUTE LYMPHOCYTE [4]: 9946 CELLS/uL
ABSOLUTE MONOCYTE [4]: 214 CELLS/uL
ABSOLUTE SEGMENTED NEUTROPHIL [4]: 540 CELLS/uL
BASOPHIL [4]: 0%
EOSINOPHIL [4]: 0%
ERYTHROCYTE COUNT [4]: 6.18 x10E6/uL
HEMATOCRIT [4]: 38.5%
HEMOGLOBIN [4]: 14.07 G/DL
LEUKOCYTE COUNT [4]: 10.7 x10E3/uL
LYMPHOCYTE [4]: 93%
MEAN CORPUSCULAR HEMOGLOBIN [4]: 22.77 pg
MEAN CORPUSCULAR HEMOGLOBIN CONCENTRATION [4]: 36.63 G/DL
MEAN CORPUSCULAR VOLUME [4]: 62.23 fL
MONOCYTE [4]: 2%
NEUTROPHIL [4]: 5%
NUCLEATED RED BLOOD CELLS [4]: 0 /100WBC
PLATELET COUNT [4]: 1155 x10E3/uL
ALANINE AMINOTRANSFERASE [4]: 40 u/L
ALBUMIN [4]: 4.43 G/DL
ALKALINE PHOSPHATASE [4]: 422.33 u/L
ASPARTATE AMINOTRANSFERASE [4]: 70.67 u/L
BLOOD UREA NITROGEN [4]: 14.67 mg/dL
CARBON DIOXIDE [4]: 33.67 mmol/L
CHLORIDE [4]: 102 MEQ/L
CHOLESTEROL [4]: 81 mg/dL
CREATINE PHOSPHOKINASE [4]: 512.33 u/L
CREATININE [4]: 0.16 mg/dL
GLUCOSE [4]: 169.33 mg/dL
LACTATE DEHYDROGENASE [4]: 125 u/L
LIPASE [4]: 9 u/L
PHOSPHORUS [4]: 13.57 mg/dL
POTASSIUM [4]: 6.98 MEQ/L
SODIUM [4]: 147.2 MEQ/L
TOTAL BILIRUBIN [4]: 0.2 mg/dL
TOTAL PROTEIN [4]: 6.37 G/DL
URIC ACID [4]: 1.83 mg/dL

Reference: ChEMBL document CHEMBL3885881, “DrugMatrix”
